Measurements taken from patent EP0293500A1, “3-heteroalkyl-2,4.quinzaoline-diones” (AMERICAN CYANAMID COMPANY, priority 1987, dated 1988).
Structures can show the parent of a compound that is named as a salt.

Assays:
[1] = test system: spontaneously hypertensive rats of the Okamoto strain; assay: Hypotensive activity in spontaneously hypertensive rats (method of Chan and Poorvin); format: in vivo; conditions: male SHR, average MABP 160±1.5 mm of mercury; gavage, 100 mg/kg or less, second identical dose 24 hours later; MABP at 28 hours after the initial dose; number of rats in brackets
Experimental: The novel compounds of the present invention are also active hypotensive agents and were tested for hypotensive activity by the method of P. S. Chan and b. Poorvin, Clinical and Experimental Hypertension, 1 (6), 817-830 (1979). Male, 16 week old, spontaneously hypertensive rats of the Okamoto strain, from Taconic Farms, Germantown, New York having an average mean arterial blood pressure of 160±1.5 mm of mercury were used in the test. […] A second identical dose of the test compound, without sodium chloride loading is given 24 hours later. At 28 hours after the initial dose, the mean arterial blood pressure (MABP) is measured by the method of Chan and Poorvin vide supra. The procedure is repeated in a second and third rat when necessary. The results of this test on representative compounds of the present invention appear in Table II below.

thromboxane synthetase = target: T1, thromboxane synthetase (Rattus norvegicus, UniProt P49430); assay: Inhibition of thromboxane (TX) formation (TXB2 radioimmunoassay) in washed rat platelets; format: cell-based, Okamoto-Aoki spontaneously hypertensive rats (SHR); conditions: percent inhibition of TXB2 formation; drug at 10^-4M; SHR platelet suspension, 10 minutes at 37 C
T1 construct: The platelets were isolated by centrifuging the PRP for 10 minutes at 1060xg; from tissue; host or cells: washed blood platelets from Okamoto-Aoki spontaneously hypertensive rats (SHR)
T1 sequence (P49430 1-533): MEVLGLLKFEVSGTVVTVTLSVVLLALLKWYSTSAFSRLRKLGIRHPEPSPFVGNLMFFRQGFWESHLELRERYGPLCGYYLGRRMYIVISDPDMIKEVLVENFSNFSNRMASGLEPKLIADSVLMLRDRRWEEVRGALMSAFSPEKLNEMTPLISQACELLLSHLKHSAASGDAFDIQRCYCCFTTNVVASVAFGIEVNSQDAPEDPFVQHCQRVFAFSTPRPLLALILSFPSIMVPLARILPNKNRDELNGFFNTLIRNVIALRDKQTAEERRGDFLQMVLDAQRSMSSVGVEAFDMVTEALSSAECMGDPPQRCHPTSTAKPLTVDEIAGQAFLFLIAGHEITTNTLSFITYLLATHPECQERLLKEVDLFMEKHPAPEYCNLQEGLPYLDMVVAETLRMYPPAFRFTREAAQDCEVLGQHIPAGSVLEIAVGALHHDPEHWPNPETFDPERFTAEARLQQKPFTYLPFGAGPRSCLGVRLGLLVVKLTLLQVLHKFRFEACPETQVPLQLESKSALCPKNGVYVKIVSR
Text: The platelet rich plasma (PRP) was separated. […] The inhibition of thromboxane (TX) formation was studied by determing the concentration of thromboxane […] (TXB2), the stable hydrolysis product of TXA2.

SMILES | inhibition at 100 µM (thromboxane synthetase) | MABP/mm Hg (no. of rats) [1]
CC(CCn1cnc2ccccc2c1=O)n1ccnc1.O=C(O)/C=C/C(=O)O (stereo not shown) [3-[3-(1H-Imidazol-1-yl)butyl]-4(3H)-quinazolinone, fumarate salt] |  | 119(2) mm Hg
O=c1c2ccccc2nnn1CCCn1ccnc1 [3-[3-(1H-Imidazol-1-yl)propyl]-1,2,3-benzotriazin-4(3H)-one] | 97% | 111(2) mm Hg
O=c1c2cc(Cl)ccc2nnn1CCCCCCCCn1ccnc1 [6-Chloro-3-[8-(1H-imidazol-1-yl)octyl]-1,2,3-benzotriazin-4(3H)-one, monohydro-chloride] | 90% | 116(2) mm Hg
O=c1[nH]c2ccccc2c(=O)n1CCCn1ccnc1 [Example 10, 3-[3-(1 H-Imidazol-1-yl)propyl]-2,4-(1H,3H)-quinazolinedione] | 76% | 131(3) mm Hg
O=c1[nH]c2ccccc2c(=O)n1CCCCn1ccnc1 [Example 11, 3-[4-(1H-Imidazol-1-yl)butyl]-2,4(1H,3H)-quinazolinedione] | 100% | 108(2) mm Hg
O=c1[nH]c2ccc(Br)cc2c(=O)n1CCCCn1ccnc1 [Example 12, 6-Bromo-3-[4-(1H-imidazol-1-yl)butyl]-2,4(1H,3H)-quinazolinedione] | 98% | 107(2) mm Hg
Cc1ccc2[nH]c(=O)n(CCC(C)n3ccnc3)c(=O)c2c1 (stereo not shown) [Example 17, 3-[3-(1H-Imidazol-1-yl)butyl]-6-methyl-2,4(1H,3H)-quinazolinedione] | 88% | 111(2) mm Hg
O=c1[nH]c2ccccc2c(=O)n1CCCCCn1ccnc1 [Example 18, 3-[5-(1 H-Imidazol-1-yl)pentyl]-2,4(1H,3H)-quinazolinedione] | 98% | 104(2) mm Hg
Cc1cn(CCCn2c(=O)[nH]c3ccccc3c2=O)cn1 [Example 19, 3-[3-(4-Methyl-1H-imidazol-1-yl)propyl]-2,4(1H,3H)-quinazolinedione] | 98% | 135(3) mm Hg
CC(CCn1c(=O)[nH]c2ccccc2c1=O)n1ccnc1 (stereo not shown) [Example 20, 3-[3-(1H-Imidazol-1-yl)butyl]-2,4(1H,3H)-quinazolinedione] | 100% | 121(3) mm Hg
CC(Cn1ccnc1)Cn1c(=O)[nH]c2ccccc2c1=O (stereo not shown) [Example 21, 3-[3-(1H-Imidazol-1-yl)-2-methylpropyl]-2,4(1H,3H)-quinazolinedione] | 100% | 112(2) mm Hg
O=c1[nH]c2ccc(Cl)cc2c(=O)n1CCCCn1ccnc1 [Example 24, 6-Chloro-3-[4-(1H-imidazol-1-yl)butyl]-2,4(1H,3H)-quinazolinedione] | 93% | 106(2) mm Hg
Cc1cn(CCCn2c(=O)[nH]c3ccc(Cl)cc3c2=O)cn1 [Example 26, 6-Chloro-3-[3-(4-methyl-1H-imidazol-1-yl)-propyl]-2,4(1H,3H)-quinazolinedione] | 99% | 125(3) mm Hg
Cc1cn(CCCCn2c(=O)[nH]c3ccc(Cl)cc3c2=O)cn1 [Example 28, 6-Chloro-3-[4-(4-methyl-1H-imidazol-1-yl)butyl]-2,4(1H,3H)-quinazolinedione] | 70% | 118(2) mm Hg
CC(CCn1c(=O)[nH]c2ccc(Cl)cc2c1=O)n1ccnc1 (stereo not shown) [Example 30, 6-Chloro-3-[3-(1H-imidazol-1-yl)-butyl]-2,4(1H,3H)-quinazolinedione] | 98% | 113(2) mm Hg
CC(Cn1ccnc1)Cn1c(=O)[nH]c2ccc(Cl)cc2c1=O (stereo not shown) [Example 31, 6-Chloro-3-[3-(1H-imidazol-1-yl)-2-methylpropyl]-2,4(1H,3H)-quinazolinedione] | 100% | 126(3) mm Hg
O=c1[nH]c2cc(Cl)ccc2c(=O)n1CCCCn1ccnc1 [Example 40, 7-Chloro-3-[4-(1H-imidazol-1-yl)butyl]-2,4(1H,3H)-quinazolinedione] | 59% | 102(2) mm Hg
Cc1ccc2c(=O)n(CCCCn3ccnc3)c(=O)[nH]c2c1C [Example 50, 7,8-Dimethyl-3-[4-(1H-imidazol-1-yl)-butyl]-2,4(1H,3H)-quinazolinedione] |  | 104(2) mm Hg
Cc1ccc2nnn(CC(C)Cn3ccnc3)c(=O)c2c1 (stereo not shown) [Example 85, 3-[3-(1H-Imidazol-1-yl)-2-methyl-propyl]-6-methyl-1,2,3-benzo-triazin-4(3H)-one, monohydro-chloride] | 95% | 
O=c1c2cc(Cl)ccc2nnn1CCCCn1ccnc1 [Example 88, 6-Chloro-3-[4-(1H-imidazol-1-yl)-butyl]-1,2,3-benzotriazin-4(3H)-one] |  | 105(2) mm Hg
O=c1c2ccccc2nnn1CCCCc1cccnc1 [Example 90, 3-[4-(3-Pyridin-yl)butyl]-1,2,3-benzotriazin-4(3H)-one] | 75% | 
Cl.Cl.O=c1c2ccccc2ncn1CCCCCn1ccnc1 [Example 137, 3-[5-(1H-Imidazol-1-yl)pentyl]-4(3H)-quinazolinone, dihydrochloride] |  | 110(2) mm Hg
O=c1c2ccc(Cl)cc2ncn1CCCCn1ccnc1 [Example 149, 7-Chloro-3-(4-(1H-imidazol-1-yl)butyl]-4(3H)-quinazolinone] |  | 126(2) mm Hg
CCc1nc2ccc(Cl)cc2c(=O)n1CCCn1ccnc1 [Example 158, 6-Chloro-2-ethyl-3-[3-(1H-imidazol-1-yl)propyl]-4(3H)-quinazolinone] |  | 120(4) mm Hg

Second part, led by results:

inhibition at 100 µM (thromboxane synthetase) | SMILES | MABP/mm Hg (no. of rats) [1]
80% | O=c1c2cc(Cl)ccc2nnn1CCCCCCCCCCn1ccnc1 [Example 91, 6-Chloro-3-[10-(1H-imidazol-1-yl)decyl]-1,2,3-benzotriazin-4(3H)-one, fumarate] | 
85% | Cc1cn(CCCn2nnc3ccc(Cl)cc3c2=O)cn1 [Example 92, 6-Chloro-3-[3-(4-methyl-1H-imida-zol-1-yl)propyl]-1,2,3-benzotria-zin-4(3H)-one] | 
85% | O=c1c2cc(Cl)ccc2nnn1CCCCc1cccnc1 [Example 93, 6-Chloro-3-[4-(3-pyridinyl)butyl]-1,2,3-benzotria-zin-4(3H)-one] | 
86% | O=c1c2cccc(C(F)(F)F)c2nnn1CCCCn1ccnc1 [Example 94, 3-[4-(1H-Imida-zol-1-yl)butyl]-8-trifluoro-methyl-1,2,3-benzotriazin-4(3H)-one] | 
87% | O=c1c2cccc(C(F)(F)F)c2nnn1CCCCCn1ccnc1 [Example 95, 3-[5-(1H-Imida-zol-1-yl)pentyl]-8-trifluoro-methyl-1,2,3-benzotriazin-4(3H)-one] | 
74% | Cc1cn(CCCn2cnc3ccccc3c2=O)cn1 [Example 133, 3-[3-(4-Methyl-1H-imidazol-1-yl)propyl]-4(3H)-quinazolinone] | 
99% | O=c1c2ccccc2ncn1CCCCc1cccnc1 [Example 135, 3-[4-(3-Pyridyl)butyl]-4(3H)-quina-zolinone, dihydrochloride] | 
86% | O=c1c2ccccc2ncn1CCCCCCn1ccnc1 [Example 136, 3-[6-(1H-Imidazol-1-yl)hexyl]-4(3H)-quinazolinone, dihydrochloride] | 
94% | CC(Cn1ccnc1)Cn1cnc2ccc(Cl)cc2c1=O (stereo not shown) [Example 141, 6-Chloro-3-[3-(1H-imidazol-1-yl)-2-methylpropyl]-4(3H)quinazolinone] | 
100% | O=c1c2cc(Cl)ccc2ncn1CCCCc1cccnc1 [Example 142, 6-Chloro-3-[4-(3-pyridyl)butyl]-4(3H)-quinazolinone] | 
96% | O=c1c2cc(Cl)ccc2ncn1CCCn1ccnc1-c1ccccc1 [Example 144, 6-Chloro-3-[3-(2-phenyl-1H-imidazol-1-yl)propyl]-4(3H)-quinazolinone, dihydro-chloride] | 
79% | O=c1c2cc(Cl)ccc2ncn1CCC(c1ccccc1)n1ccnc1 (stereo not shown) [Example 148, 6-Chloro-3-[3-(1H-imidazol-1-yl)-3-phenylpropyl]-4-(3H)-quinazolinone] | 
